From patent publication US20180298053A1, “ANTIBIOTIC OLIGOPEPTIDES” (priority 2017, published 2018)
Counter-ions that a name gives are not always drawn. Square brackets hold non-standard residues; d marks the D form. Peptide text beside a SMILES is read from it. * marks the point of attachment. ξ: configuration not given here. ξF = NC(Cc1ccccc1)C(=O)O; NHOH = ON*

Tested on: E. coli (ATTC 8739)
Test: Zone of inhibition test
Format: cell-based
Settings: at 12.5 μg, FIG. 1B
Experimental: Compound A was tested against L-phenylalanine-(S)-2-amino-N-hydroxy-4-(methylthio)butanamide hydrochloride (Example 3) in a side-by-side comparison in a conventional zone of inhibition test. In this test, both compounds were compared at various concentrations against E. coli (ATTC 8739) grown in a Petri dish using the antibiotic kanamycin as a control.

Compound: CSCC[C@H](NC(=O)C(N)Cc1ccccc1)C(=O)NO (stereo partly drawn) [Example 3, L-phenylalanine-(S)-2-amino-N-hydroxy-4-(methylthio)butanamide Hydrochloride] (H-[ξF]-Met-{NHOH})
- strength of zone of inhibition compared with cpd. A at 50 μg: substantially stronger
